Test results reported in PubChem BioAssay (NCI).
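All cell lines were grown in 96-well plates and treated with compound for 48 hours. TGI is the concentration that stops growth completely.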

Assays:
Assay in all cases: inhibition of tumour cell growth, NCI panel, 48 h
MDA-MB-435 = test system: MDA-MB-435
MDA-MB-231 breast = test system: MDA-MB-231 breast
UACC-62 melanoma = test system: UACC-62 melanoma
LOX IMVI melanoma = test system: LOX IMVI melanoma
A549 NSCLC = test system: A549 NSCLC
COLO 205 colon = test system: COLO 205 colon
OVCAR-5 ovarian = test system: OVCAR-5 ovarian
RXF 393 renal = test system: RXF 393 renal
CAKI-1 renal = test system: CAKI-1 renal
DU-145 prostate = test system: DU-145 prostate
SNB-75 CNS = test system: SNB-75 CNS
NCI-H226 lung = test system: NCI-H226 lung
SK-OV-3 ovarian = test system: SK-OV-3 ovarian
KM12 colon = test system: KM12 colon
EKVX NSCLC = test system: EKVX NSCLC
U251 CNS = test system: U251 CNS
SF-539 CNS = test system: SF-539 CNS
SK-MEL-5 melanoma = test system: SK-MEL-5 melanoma
SW-620 colon = test system: SW-620 colon
IGROV1 ovarian = test system: IGROV1 ovarian
HOP-92 NSCLC = test system: HOP-92 NSCLC
CCRF-CEM leukemia = test system: CCRF-CEM leukemia
MALME-3M melanoma = test system: MALME-3M melanoma
NCI-H522 lung = test system: NCI-H522 lung
NCI/ADR-RES ovarian = test system: NCI/ADR-RES ovarian
ACHN renal = test system: ACHN renal
NCI-H23 lung = test system: NCI-H23 lung
SNB-19 CNS = test system: SNB-19 CNS
SK-MEL-28 melanoma = test system: SK-MEL-28 melanoma
HS 578T breast = test system: HS 578T breast
SF-295 CNS = test system: SF-295 CNS
MCF7 breast = test system: MCF7 breast
PC-3 prostate = test system: PC-3 prostate
A498 renal = test system: A498 renal
786-0 renal = test system: 786-0 renal
UO-31 renal = test system: UO-31 renal
OVCAR-8 ovarian = test system: OVCAR-8 ovarian
SK-MEL-2 melanoma = test system: SK-MEL-2 melanoma
HOP-62 NSCLC = test system: HOP-62 NSCLC
HCT-116 colon = test system: HCT-116 colon
HL-60(TB) leukemia = test system: HL-60(TB) leukemia
HT29 colon = test system: HT29 colon
MDA-N = test system: MDA-N
HCT-15 colon = test system: HCT-15 colon
TK-10 renal = test system: TK-10 renal
UACC-257 melanoma = test system: UACC-257 melanoma
SF-268 CNS = test system: SF-268 CNS
MOLT-4 leukemia = test system: MOLT-4 leukemia
OVCAR-4 ovarian = test system: OVCAR-4 ovarian
M14 melanoma = test system: M14 melanoma
T-47D breast = test system: T-47D breast
SN12C renal = test system: SN12C renal
SR leukemia = test system: SR leukemia
RPMI-8226 leukemia = test system: RPMI-8226 leukemia
HCC-2998 colon = test system: HCC-2998 colon
K-562 leukemia = test system: K-562 leukemia
NCI-H460 lung = test system: NCI-H460 lung
OVCAR-3 ovarian = test system: OVCAR-3 ovarian
BT-549 breast = test system: BT-549 breast

COC1C(N(C)C)=C(c2ccccc2)C(=O)N2CCc3ccccc3C12 (stereo unspecified)
TGI (MDA-MB-435): > 100 µM | TGI (MDA-MB-231 breast): > 100 µM | TGI (UACC-62 melanoma): > 100 µM | TGI (LOX IMVI melanoma): > 100 µM | TGI (A549 NSCLC): > 100 µM | TGI (COLO 205 colon): > 100 µM | TGI (OVCAR-5 ovarian): > 100 µM | TGI (RXF 393 renal): > 100 µM | TGI (CAKI-1 renal): > 100 µM | TGI (DU-145 prostate): > 100 µM | TGI (SNB-75 CNS): > 100 µM | TGI (NCI-H226 lung): > 100 µM | TGI (SK-OV-3 ovarian): > 100 µM | TGI (KM12 colon): > 100 µM | TGI (EKVX NSCLC): > 100 µM | TGI (U251 CNS): > 100 µM | TGI (SF-539 CNS): > 100 µM | TGI (SK-MEL-5 melanoma): > 100 µM | TGI (SW-620 colon): > 100 µM | TGI (IGROV1 ovarian): > 100 µM | TGI (HOP-92 NSCLC): > 100 µM | TGI (CCRF-CEM leukemia): > 100 µM | TGI (MALME-3M melanoma): > 100 µM | TGI (NCI-H522 lung): > 100 µM | TGI (NCI/ADR-RES ovarian): > 100 µM | TGI (ACHN renal): > 100 µM | TGI (NCI-H23 lung): > 100 µM | TGI (SNB-19 CNS): > 100 µM | TGI (SK-MEL-28 melanoma): > 100 µM | TGI (HS 578T breast): > 100 µM | TGI (SF-295 CNS): > 100 µM | TGI (MCF7 breast): > 100 µM | TGI (PC-3 prostate): > 100 µM | TGI (A498 renal): > 100 µM | TGI (786-0 renal): > 100 µM | TGI (UO-31 renal): > 100 µM | TGI (OVCAR-8 ovarian): > 100 µM | TGI (SK-MEL-2 melanoma): > 100 µM | TGI (HOP-62 NSCLC): > 100 µM | TGI (HCT-116 colon): > 100 µM | TGI (HL-60(TB) leukemia): > 100 µM | TGI (HT29 colon): > 100 µM | TGI (MDA-N): > 100 µM | TGI (HCT-15 colon): > 100 µM | TGI (TK-10 renal): > 100 µM | TGI (UACC-257 melanoma): > 100 µM | TGI (SF-268 CNS): > 100 µM | TGI (MOLT-4 leukemia): > 100 µM | TGI (OVCAR-4 ovarian): > 100 µM | TGI (M14 melanoma): > 100 µM | TGI (T-47D breast): > 100 µM | TGI (SN12C renal): > 100 µM

CN(CCNC(=O)c1c[nH]c2c1Cc1ccccc1-2)CCNC(=O)c1c[nH]c2c1Cc1ccccc1-2
TGI (MDA-MB-435): 41.3 µM | TGI (MDA-MB-231 breast): 80.6 µM | TGI (UACC-62 melanoma): 40.9 µM | TGI (LOX IMVI melanoma): > 100 µM | TGI (A549 NSCLC): > 100 µM | TGI (COLO 205 colon): > 100 µM | TGI (OVCAR-5 ovarian): > 100 µM | TGI (RXF 393 renal): > 100 µM | TGI (CAKI-1 renal): > 100 µM | TGI (DU-145 prostate): > 100 µM | TGI (NCI-H226 lung): 71.9 µM | TGI (KM12 colon): > 100 µM | TGI (EKVX NSCLC): > 100 µM | TGI (U251 CNS): 34.7 µM | TGI (SR leukemia): > 100 µM | TGI (SF-539 CNS): 49.2 µM | TGI (RPMI-8226 leukemia): 73.4 µM | TGI (SK-MEL-5 melanoma): 71.4 µM | TGI (SW-620 colon): > 100 µM | TGI (IGROV1 ovarian): > 100 µM | TGI (HOP-92 NSCLC): > 100 µM | TGI (MALME-3M melanoma): > 100 µM | TGI (NCI-H522 lung): 97 µM | TGI (NCI/ADR-RES ovarian): > 100 µM | TGI (ACHN renal): > 100 µM | TGI (NCI-H23 lung): > 100 µM | TGI (SNB-19 CNS): > 100 µM | TGI (SK-MEL-28 melanoma): > 100 µM | TGI (HS 578T breast): > 100 µM | TGI (SF-295 CNS): > 100 µM | TGI (MCF7 breast): 86 µM | TGI (PC-3 prostate): 41.9 µM | TGI (786-0 renal): 44.8 µM | TGI (UO-31 renal): > 100 µM | TGI (OVCAR-8 ovarian): > 100 µM | TGI (HCC-2998 colon): > 100 µM | TGI (K-562 leukemia): > 100 µM | TGI (SK-MEL-2 melanoma): 52.1 µM | TGI (HOP-62 NSCLC): > 100 µM | TGI (HCT-116 colon): > 100 µM | TGI (HL-60(TB) leukemia): 77.2 µM | TGI (HT29 colon): > 100 µM | TGI (MDA-N): 33.9 µM | TGI (HCT-15 colon): > 100 µM | TGI (TK-10 renal): > 100 µM | TGI (NCI-H460 lung): > 100 µM | TGI (UACC-257 melanoma): > 100 µM | TGI (OVCAR-3 ovarian): 73.7 µM | TGI (SF-268 CNS): > 100 µM | TGI (MOLT-4 leukemia): 63.7 µM | TGI (OVCAR-4 ovarian): > 100 µM | TGI (M14 melanoma): 84.6 µM | TGI (SN12C renal): > 100 µM | TGI (BT-549 breast): > 100 µM
